In PubChem BioAssay AID248 (DTP/NCI, 2004):
“And” between values parts separate entries of the source, which are not always exact repeats. Equal values may be shown once. Toxic doses and inconclusive results are not listed. No stated cut-off is given here; in the data, active means T/C of 150% or more; inactive means T/C below 125%.

Tested on: L1210 leukemia ip in BDF1 mice, survival T/C
Assay: NCI In Vivo Anticancer Drug Screen. Data for tumor model L1210 Leukemia (intraperitoneal) in B6D2F1 (BDF1) mice
Conditions: endpoint: mean survival time, higher = longer survival
Procedure, shortened: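 Tumor was transplanted into mice, which were then dosed with test compound or vehicle alone. Survival was recorded for each group, and the treated figure was expressed relative to the control figure.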

[1] = dose: 100.0 mg/kg/injection, schedule: Q04DX002 (ip), vehicle: saline
[2] = dose: 100.0 mg/kg/injection, schedule: Q01DX009 (ip), vehicle: Klucel (hydroxypropylcellulose) (HPC)
[3] = dose: 100.0 mg/kg/injection, schedule: Q04DX003 (ip), vehicle: Klucel (hydroxypropylcellulose) (HPC)
[4] = dose: 200.0 mg/kg/injection, schedule: Q01DX009 (ip), vehicle: Klucel (hydroxypropylcellulose) (HPC)
[5] = dose: 200.0 mg/kg/injection, schedule: Q04DX003 (ip), vehicle: Klucel (hydroxypropylcellulose) (HPC)
[6] = dose: 400.0 mg/kg/injection, schedule: Q01DX009 (ip), vehicle: Klucel (hydroxypropylcellulose) (HPC)
[7] = dose: 400.0 mg/kg/injection, schedule: Q04DX003 (ip), vehicle: Klucel (hydroxypropylcellulose) (HPC)
[8] = dose: 50.0 mg/kg/injection, schedule: Q01DX001 (ip), vehicle: saline
[9] = dose: 100.0 mg/kg/injection, schedule: Q01DX001 (ip), vehicle: saline
[10] = dose: 200.0 mg/kg/injection, schedule: Q01DX001 (ip), vehicle: saline
[11] = dose: 400.0 mg/kg/injection, schedule: Q01DX001 (ip), vehicle: saline
[12] = dose: 100.0 mg/kg/injection, schedule: Q04DX003 (ip), vehicle: saline with Tween-80
[13] = dose: 200.0 mg/kg/injection, schedule: Q04DX003 (ip), vehicle: saline with Tween-80
[14] = dose: 400.0 mg/kg/injection, schedule: Q04DX003 (ip), vehicle: saline with Tween-80
[15] = dose: 100.0 mg/kg/injection, schedule: Q01DX009 (ip), vehicle: saline with Tween-80
[16] = dose: 200.0 mg/kg/injection, schedule: Q01DX009 (ip), vehicle: saline with Tween-80
[17] = dose: 400.0 mg/kg/injection, schedule: Q01DX009 (ip), vehicle: saline with Tween-80

Measured: T/C

CC/C=C(\C)C1(CC)C(=O)NC(=O)NC1=O
inactive: dose: 75.0 mg/kg/injection, schedule: Q01DX001 (ip), vehicle: saline 102 % of control | dose: 150.0 mg/kg/injection, schedule: Q01DX001 (ip), vehicle: saline 95 % of control

CCC[As](=O)(O)CC
inactive: dose: 100.0 mg/kg/injection, schedule: Q01DX009 (ip), vehicle: saline 103 % of control | dose: 200.0 mg/kg/injection, schedule: Q01DX009 (ip), vehicle: saline 105 % of control

COc1ccc(C(=O)/C=C/c2ccc(C(C)C)cc2)cc1
inactive: dose: 75.0 mg/kg/injection, schedule: Q04DX003 (ip), vehicle: saline 94 % of control | dose: 150.0 mg/kg/injection, schedule: Q04DX003 (ip), vehicle: saline 100 % of control | dose: 300.0 mg/kg/injection, schedule: Q04DX003 (ip), vehicle: saline 89 % of control

Cc1ccc(C2C(C(=O)N3CCN(C)CC3)C2c2ccccc2)cc1 (stereo not drawn)
inactive: dose: 25.0 mg/kg/injection, schedule: Q04DX002 (ip), vehicle: saline 98 % of control | dose: 50.0 mg/kg/injection, schedule: Q04DX002 (ip), vehicle: saline 98 % of control | [1] 95 % of control

C/C(=N\N=C(/C)c1ccc(Cl)cc1)c1ccc(Cl)cc1
inactive: dose: 100.0 mg/kg/injection, schedule: Q01DX001 (ip), vehicle: Klucel (hydroxypropylcellulose) (HPC) 87 % of control | [2] 89 % of control and 95 % of control | [3] 89 % of control and 96 % of control | dose: 200.0 mg/kg/injection, schedule: Q01DX001 (ip), vehicle: Klucel (hydroxypropylcellulose) (HPC) 87 % of control | [4] 86 % of control and 95 % of control | [5] 89 % of control and 102 % of control | dose: 400.0 mg/kg/injection, schedule: Q01DX001 (ip), vehicle: Klucel (hydroxypropylcellulose) (HPC) 97 % of control | [6] 94 % of control | [7] 98 % of control and 93 % of control

CC1(C)N=C(N)N=C(N)N1c1cccc(OCCCOc2cccc(NC(=O)CBr)c2)c1
inactive: dose: 5.0 mg/kg/injection, schedule: Q01DX001 (ip), vehicle: saline 95 % of control | dose: 10.0 mg/kg/injection, schedule: Q01DX001 (ip), vehicle: saline 94 % of control | dose: 20.0 mg/kg/injection, schedule: Q01DX001 (ip), vehicle: saline 101 % of control | dose: 40.0 mg/kg/injection, schedule: Q01DX001 (ip), vehicle: saline 103 % of control

NC(=O)CCc1cnc2ccccc2n1
inactive: [2] 89 % of control | [3] 106 % of control | [4] 95 % of control | [5] 106 % of control | [6] 90 % of control | [7] 97 % of control

[Cl][Sb]([c]1ccccc1)([c]1ccccc1)([c]1ccccc1)[c]1ccccc1
inactive: dose: 2.4 mg/kg/injection, schedule: Q01DX009 (ip), vehicle: saline 101 % of control | dose: 4.7 mg/kg/injection, schedule: Q01DX009 (ip), vehicle: saline 94 % of control | dose: 9.4 mg/kg/injection, schedule: Q01DX009 (ip), vehicle: saline 91 % of control

CCCCCCCCSP(=S)(N1CC1)N1CC1
inactive: [8] 102 % of control | [9] 108 % of control | [10] 98 % of control | [11] 96 % of control

OC1(c2ccccc2)CC2CCCCC2c2ccccc21 (stereo not drawn)
inactive: dose: 12.0 mg/kg/injection, schedule: Q01DX001 (ip), vehicle: saline 98 % of control | dose: 25.0 mg/kg/injection, schedule: Q01DX001 (ip), vehicle: saline 100 % of control | [8] 102 % of control

O=C(O)/C=C/C(=O)Nc1ccc(F)cc1F
inactive: [12] 100 % of control | [13] 100 % of control | [14] 107 % of control

O=C1OCC/C1=C1\CCCO1
inactive: [15] 93 % of control | [16] 100 % of control | [17] 96 % of control

O=C(N/N=C/c1ccc(Cl)cc1)c1ccc(Cl)cc1
inactive: [12] 105 % of control | [13] 98 % of control | [14] 91 % of control

CCOCCOCCOC(C)Oc1ccc(C(=O)OC)cc1 (stereo not drawn)
inactive: [1] 99 % of control | dose: 200.0 mg/kg/injection, schedule: Q04DX002 (ip), vehicle: saline 96 % of control | dose: 400.0 mg/kg/injection, schedule: Q04DX002 (ip), vehicle: saline 89 % of control

COC(=O)C1c2ccoc2CC2C1C(O)C(O)C1C(C)(C)CCCC21C (stereo not drawn)
inactive: dose: 50.0 mg/kg/injection, schedule: Q04DX003 (ip), vehicle: saline with Tween-80 103 % of control | [12] 95 % of control | [13] 95 % of control

CCCCCCCCCCCCCCCCOc1ccc(C(=O)OC)cc1N
inactive: [3] 102 % of control | [5] 104 % of control | [7] 96 % of control

O=C(ON=C1C=CC(=NOC(=O)c2ccccc2)C=C1)c1ccccc1
inactive: [9] 97 % of control | [10] 102 % of control | [11] 91 % of control

CC(=O)c1cccc(N)c1
inactive: [2] 94 % of control | dose: 100.0 mg/kg/injection, schedule: Q04DX003 (ip), vehicle: saline 95 % of control | [4] 93 % of control | dose: 200.0 mg/kg/injection, schedule: Q04DX003 (ip), vehicle: saline 95 % of control | [6] 93 % of control | dose: 400.0 mg/kg/injection, schedule: Q04DX003 (ip), vehicle: saline 88 % of control

CCOC(=O)NC(C)NC(=O)OCC
inactive: [9] 107 % of control | [10] 101 % of control | [11] 97 % of control

O=C(NC1N=C2OC(COC(=O)c3ccccc3)C(OC(=O)c3ccccc3)C2O1)c1ccccc1 (stereo not drawn)
inactive: [15] 108 % of control | [16] 93 % of control | [17] 98 % of control

Nc1nc(-c2ccccc2)c(CCCOc2ccccc2)c(=O)[nH]1
inactive: dose: 12.5 mg/kg/injection, schedule: Q01DX009 (ip), vehicle: gum acacia 95 % of control | dose: 25.0 mg/kg/injection, schedule: Q01DX009 (ip), vehicle: gum acacia 109 % of control | dose: 50.0 mg/kg/injection, schedule: Q01DX009 (ip), vehicle: gum acacia 100 % of control | dose: 100.0 mg/kg/injection, schedule: Q01DX009 (ip), vehicle: gum acacia 92 % of control and 90 % of control | dose: 400.0 mg/kg/injection, schedule: Q01DX009 (ip), vehicle: gum acacia 96 % of control

CCOC(=O)N1C=Cc2ccccc2C1C#N (stereo not drawn)
inactive: dose: 100.0 mg/kg/injection, schedule: Q01DX001 (ip), vehicle: carboxymethylcellulose (CMC) 124 % of control | dose: 200.0 mg/kg/injection, schedule: Q01DX001 (ip), vehicle: carboxymethylcellulose (CMC) 98 % of control | dose: 400.0 mg/kg/injection, schedule: Q01DX001 (ip), vehicle: carboxymethylcellulose (CMC) 93 % of control

CCCCCCCC/C=C\CCCCCCCC(=O)OCC
inactive: dose: 100.0 mg/kg/injection, schedule: Q01DX001 (ip), vehicle: saline with Tween-80 98 % of control | dose: 200.0 mg/kg/injection, schedule: Q01DX001 (ip), vehicle: saline with Tween-80 107 % of control | dose: 400.0 mg/kg/injection, schedule: Q01DX001 (ip), vehicle: saline with Tween-80 95 % of control
